Tests used:
Assay type in all cases: functional
Homo sapiens [1] = species on record: Homo sapiens; assay: In vitro effect on lipoxygenase activity in intact human polymorphonuclear leukocytes at a concentration of 10 e-4 M on formation of Leukotriene B4 (LTB4)
Homo sapiens [2] = species on record: Homo sapiens; assay: In vitro effect on lipoxygenase activity in intact human polymorphonuclear leukocytes at a concen of 10 e-4 M on formation of 5-HETE
Homo sapiens [3] = species on record: Homo sapiens; assay: In vitro effect on lipoxygenase activity in intact human polymorphonuclear leukocytes at a concentration of 10 e-4 M on formation of 5-HETE

Structure (SMILES) | Effect (Homo sapiens [1]) [%] | Effect (Homo sapiens [2]) [%] | Effect (Homo sapiens [3]) [%]
CCCCC/C=C\C/C=C\C/C=C\Cc1ccccc1CCCC(=O)O | -91 | -94 | 
CCCCC/C=C\C/C=C\C(C)(C)/C=C\C/C=C\CCCC(=O)O | 40 | 60 | 
CCCCC/C=C\C/C=C\C/C=C\C(C)(C)/C=C\CCCC(=O)O | 19 |  | 29

Source: ChEMBL document CHEMBL1122261, “Synthesis of three potential inhibitors of leukotriene biosynthesis” (1983)
